Assay type in all cases: in vivo
In one experiment the test system is Venturia inaequalis. In words: Apple Scab (VENTIN) disease control. Conditions: 1 Day Protectant; for pest or weed control at 100 ppm: Venturia inaequalis, topical, 24 h, read-out: Disease Control VENTIN 1 DP. The procedure:
Technical grades of materials were dissolved in acetone, which were then mixed with nine volumes of water containing 110 ppm Triton X-100. The fungicide solutions were applied onto wheat seedlings using an automated booth sprayer to run-off. All sprayed plants were allowed to air dry prior to further handling. All fungicides were evaluated using the aforementioned method for their activity vs. all target diseases. Wheat leaf blotch and brown rust activity were also evaluated using track spray applications, in which case the fungicides were formulated as EC formulations, containing 0.1% Trycol 5941 in the spray solutions. Wheat plants (variety Yuma) were grown from seed in a greenhouse in 50% mineral soil/50% soil-less Metro mix until the first leaf was fully emerged, with 7-10 seedlings per pot. These plants were inoculated with an aqueous spore suspension of Septoria tritici either prior to or after fungicide treatments. After inoculation the plants were kept in 100% relative humidity (one day in a dark dew chamber followed by two to three days in a lighted dew chamber at 20° C.) to permit spores to germinate and infect the leaf. The plants were then transferred to a greenhouse set at 20° C. for disease to develop. When disease symptoms were fully expressed on the 1st leaves of untreated plants, infection levels were assessed on a scale of 0 to 100 percent disease severity. Percent disease control was calculated using the ratio of disease severity on treated plants relative to untreated plants. Apple seedlings (variety McIntosh) were grown in soil-less Metro mix, with one plant per pot. Seedlings with two expanding young leaves at the top (older leaves at bottom of the plants were trimmed) were used in the test. Plants were inoculated with a spore suspension of Venturia inaequalis 24 hr after fungicide treatment and kept in a 22° C. dew chamber with 100% RH for 48 hr, and then moved to a greenhouse set at 20° C. for disease to develop. Fungicide formulation, application and disease assessment on the sprayed leaves followed the procedures as described in the Example A.

Experiment [1] concerns Glomerella lagenarium; Anamorph: Colletotrichum lagenarium. The experiment is described as follows: Cucumber Anthracnose (COLLLA) disease control. Conditions: 1 Day Protectant; for pest or weed control at 100 ppm: Colletotrichum orbiculare, topical, 24 h, read-out: Disease Control COLLLA 1 DP. The procedure: Technical grades of materials were dissolved in acetone, which were then mixed with nine volumes of water containing 110 ppm Triton X-100. The fungicide solutions were applied onto wheat seedlings using an automated booth sprayer to run-off. All sprayed plants were allowed to air dry prior to further handling. All fungicides were evaluated using the aforementioned method for their activity vs. all target diseases. Wheat leaf blotch and brown rust activity were also evaluated using track spray applications, in which case the fungicides were formulated as EC formulations, containing 0.1% Trycol 5941 in the spray solutions. Wheat plants (variety Yuma) were grown from seed in a greenhouse in 50% mineral soil/50% soil-less Metro mix until the first leaf was fully emerged, with 7-10 seedlings per pot. These plants were inoculated with an aqueous spore suspension of Septoria tritici either prior to or after fungicide treatments. After inoculation the plants were kept in 100% relative humidity (one day in a dark dew chamber followed by two to three days in a lighted dew chamber at 20° C.) to permit spores to germinate and infect the leaf. The plants were then transferred to a greenhouse set at 20° C. for disease to develop. When disease symptoms were fully expressed on the 1st leaves of untreated plants, infection levels were assessed on a scale of 0 to 100 percent disease severity. Percent disease control was calculated using the ratio of disease severity on treated plants relative to untreated plants. Cucumber seedlings (variety Bush Pickle) were propagated in soil-less Metro mix, with each pot having one plant, and used in the test when 12 to 14 days old. Test plants were inoculated with an aqueous spore suspension of Colletotrichum lagenarium 24 hr after fungicide treatments. After inoculation the plants were kept in a dew room at 22° C. with 100% relative humidity for 48 hr to permit spores to germinate and infect the leaf. The plants were then transferred to a growth room set at 22° C. for disease to develop. Fungicide formulation, application and disease assessment on the sprayed leaves followed the procedures as described in the Example A.

The next experiment deals with Rhyncosporium secalis. In words: Barley Scald (RHYNSE) disease control. The note with it: 1 Day Protectant; for pest or weed control at 100 ppm: Hordeum vulgare, 24 h, read-out: Disease Control RHYNSE 1 DP. The protocol: Technical grades of materials were dissolved in acetone, which were then mixed with nine volumes of water containing 110 ppm Triton X-100. The fungicide solutions were applied onto wheat seedlings using an automated booth sprayer to run-off. All sprayed plants were allowed to air dry prior to further handling. All fungicides were evaluated using the aforementioned method for their activity vs. all target diseases. Wheat leaf blotch and brown rust activity were also evaluated using track spray applications, in which case the fungicides were formulated as EC formulations, containing 0.1% Trycol 5941 in the spray solutions. Wheat plants (variety Yuma) were grown from seed in a greenhouse in 50% mineral soil/50% soil-less Metro mix until the first leaf was fully emerged, with 7-10 seedlings per pot. These plants were inoculated with an aqueous spore suspension of Septoria tritici either prior to or after fungicide treatments. After inoculation the plants were kept in 100% relative humidity (one day in a dark dew chamber followed by two to three days in a lighted dew chamber at 20° C.) to permit spores to germinate and infect the leaf. The plants were then transferred to a greenhouse set at 20° C. for disease to develop. When disease symptoms were fully expressed on the 1st leaves of untreated plants, infection levels were assessed on a scale of 0 to 100 percent disease severity. Percent disease control was calculated using the ratio of disease severity on treated plants relative to untreated plants. Barley seedlings (variety Harrington) were propagated in soil-less Metro mix, with each pot having 8 to 12 plants, and used in the test when first leaf was fully emerged. Test plants were inoculated by an aqueous spore suspension of Rhyncosporium secalis 24 hr after fungicide treatments. After inoculation the plants were kept in a dew room at 20° C. with 100% relative humidity for 48 hr. The plants were then transferred to a greenhouse set at 20° C. for disease to develop. Fungicide formulation, application and disease assessment on the sprayed leaves followed the procedures as described in the Example A.

A further experiment concerns Uncinula necator. In words: Grape Powdery Mildew (UNCINE) disease control. Conditions: 1 Day Protectant; for pest or weed control at 100 ppm: Erysiphe necator, topical, 24 h, read-out: Disease Control UNCINE 1 DP. The procedure: Technical grades of materials were dissolved in acetone, which were then mixed with nine volumes of water containing 110 ppm Triton X-100. The fungicide solutions were applied onto wheat seedlings using an automated booth sprayer to run-off. All sprayed plants were allowed to air dry prior to further handling. All fungicides were evaluated using the aforementioned method for their activity vs. all target diseases. Wheat leaf blotch and brown rust activity were also evaluated using track spray applications, in which case the fungicides were formulated as EC formulations, containing 0.1% Trycol 5941 in the spray solutions. Wheat plants (variety Yuma) were grown from seed in a greenhouse in 50% mineral soil/50% soil-less Metro mix until the first leaf was fully emerged, with 7-10 seedlings per pot. These plants were inoculated with an aqueous spore suspension of Septoria tritici either prior to or after fungicide treatments. After inoculation the plants were kept in 100% relative humidity (one day in a dark dew chamber followed by two to three days in a lighted dew chamber at 20° C.) to permit spores to germinate and infect the leaf. The plants were then transferred to a greenhouse set at 20° C. for disease to develop. When disease symptoms were fully expressed on the 1st leaves of untreated plants, infection levels were assessed on a scale of 0 to 100 percent disease severity. Percent disease control was calculated using the ratio of disease severity on treated plants relative to untreated plants. Grape seedlings (variety Carignane) were grown in soil-less Metro mix, with one plant per pot, and used in the test when approximately one month old. Plants were inoculated 24 hr after fungicide treatment by shaking spores from infected leaves over test plants. Plants were maintained in a greenhouse set at 20° C. until disease was fully developed. Fungicide formulation, application and disease assessment on the sprayed leaves followed the procedures as described in the Example A.

Here are results for 15 molecules from patent publication US9265253B2, “Use of macrocyclic picolinamides as fungicides” (DOW AGROSCIENCES LLC, priority 2013, dated 2016).

Turning to `COCC[C@H]1CCC[C@H](NC(=O)c2nccc(OC)c2OCOC(C)=O)C(=O)O[C@@H](C)[C@@H]1Oc1ccccc1` [Compound F130], the pest or weed control at 100 ppm in the experiment on Venturia inaequalis fell in the range of 0 to 80%; in experiment [1], 80 to 100%; with Rhyncosporium secalis, 80 to 100%; with Uncinula necator it was 0 to 80%.
With `CCCO[C@@H]1[C@@H](CCC(C)C)CCC[C@H](NC(=O)c2nccc(OC)c2OC(C)=O)C(=O)O[C@H]1C` [Compound F64], the pest or weed control at 100 ppm with Venturia inaequalis lay within 0 to 80%; in experiment [1], 80 to 100%; in the experiment on Rhyncosporium secalis, 80 to 100%; in the experiment with Uncinula necator it was 80 to 100%.
For the molecule `C=C[C@H]1CCC[C@H](NC(=O)c2nccc(OC)c2OC(C)=O)C(=O)O[C@@H](C)[C@@H]1Oc1ccccc1` [Compound F86], the pest or weed control at 100 ppm with Venturia inaequalis was in the range of 0 to 80%; in experiment [1], 80 to 100%; in the experiment with Rhyncosporium secalis, 80 to 100%; with Uncinula necator, 80 to 100%.
`COc1ccnc(C(=O)N[C@H]2CCC[C@H](Cc3ccccc3)[C@@H](OCC(C)C)[C@H](C)OC2=O)c1OC(C)=O` [Compound F70]: the pest or weed control at 100 ppm was 0 to 80% in the experiment with Venturia inaequalis, 80 to 100% in experiment [1], 80 to 100% with Rhyncosporium secalis and 80 to 100% in the experiment with Uncinula necator.
As for `COc1ccnc(C(=O)N[C@H]2CCC[C@H](CC3CCCC3)[C@@H](OCC3CC3)[C@H](C)OC2=O)c1OCOC(C)=O` [Compound F117], the pest or weed control at 100 ppm (in the experiment on Venturia inaequalis; in experiment [1]; in the experiment with Rhyncosporium secalis; with Uncinula necator) was 80 to 100% each time.
As for `COc1ccnc(C(=O)N[C@H]2CCC[C@H](Cc3ccccc3)[C@@H](Oc3ccccc3)[C@H](C)OC2=O)c1OCOC(C)=O` [Compound F108], the pest or weed control at 100 ppm lay within 0 to 80% in the experiment with Venturia inaequalis, 80 to 100% in experiment [1], 80 to 100% in the experiment with Rhyncosporium secalis and 80 to 100% in the experiment on Uncinula necator.
With `CCCO[C@@H]1[C@@H](Cc2ccccc2)CCC[C@H](NC(=O)c2nccc(OC)c2OCOC(=O)COCC)C(=O)O[C@H]1C` [Compound F174], the pest or weed control at 100 ppm (in the experiment on Venturia inaequalis; in experiment [1]; in the experiment with Rhyncosporium secalis; in the experiment with Uncinula necator) was 80 to 100% in each case.
Take `COCC[C@H]1CCC[C@H](NC(=O)c2nccc(OC)c2OC(C)=O)C(=O)O[C@@H](C)[C@@H]1Oc1ccccc1` [Compound F78]: the pest or weed control at 100 ppm lay in the range of 0 to 80% in the experiment with Venturia inaequalis, 80 to 100% in experiment [1], 80 to 100% in the experiment on Rhyncosporium secalis and 0 to 80% in the experiment with Uncinula necator.
Turning to `COc1ccnc(C(=O)N[C@H]2CCC[C@H](Cc3ccc(F)cc3F)[C@@H](OCC(C)C)[C@H](C)OC2=O)c1OCOC(C)=O` [Compound F145], the pest or weed control at 100 ppm (in the experiment with Venturia inaequalis; in experiment [1]; with Rhyncosporium secalis; in the experiment with Uncinula necator) was 80 to 100% in each case.
Turning to `CCCO[C@@H]1[C@@H](CCC(C)C)CCC[C@H](NC(=O)c2nccc(OC)c2OCOC(=O)COCC)C(=O)O[C@H]1C` [Compound F161], the pest or weed control at 100 ppm (in the experiment with Venturia inaequalis; in experiment [1]; in the experiment on Rhyncosporium secalis; in the experiment with Uncinula necator) was 80 to 100% each time.
`C=C[C@H]1CCC[C@H](NC(=O)c2nccc(OC)c2OCOC(C)=O)C(=O)O[C@@H](C)[C@@H]1Oc1ccccc1` [Compound F146]: the pest or weed control at 100 ppm (with Venturia inaequalis; in experiment [1]; in the experiment on Rhyncosporium secalis; in the experiment with Uncinula necator) was 80 to 100% each time.
On to `COc1ccnc(C(=O)N[C@H]2CCC[C@H](CC(F)F)[C@@H](Oc3ccccc3)[C@H](C)OC2=O)c1OC(C)=O` [Compound F82], for which the pest or weed control at 100 ppm lay within 0 to 80% with Venturia inaequalis, 80 to 100% in experiment [1], 0 to 80% with Rhyncosporium secalis and 0 to 80% in the experiment with Uncinula necator.
On to `COc1ccnc(C(=O)N[C@H]2CCC[C@H](Cc3ccc(F)cc3)[C@@H](OCC3CC3)[C@H](C)OC2=O)c1OCOC(C)=O` [Compound F98], for which, in the experiment with Venturia inaequalis (100 ppm), the “Disease Control VENTIN 1 DP” value is recorded as “B (More than 0-Less than 80)”. Also, the “Disease Control COLLLA 1 DP” value in experiment [1] (100 ppm) was “A (80-100)”. The “Disease Control RHYNSE 1 DP” value in the experiment with Rhyncosporium secalis (100 ppm) was “A (80-100)”. The “Disease Control UNCINE 1 DP” value with Uncinula necator (100 ppm) is listed as “A (80-100)”.
Turning to `CCCO[C@@H]1[C@@H](Cc2ccccc2)CCC[C@H](NC(=O)c2nccc(OC)c2OCOC(C)=O)C(=O)O[C@H]1C` [Compound F109], the pest or weed control at 100 ppm (with Venturia inaequalis; in experiment [1]; in the experiment with Rhyncosporium secalis; in the experiment with Uncinula necator) was 80 to 100% throughout.
As to `CCOCC(=O)OCOc1c(OC)ccnc1C(=O)N[C@H]1CCC[C@H](Cc2ccccc2)[C@@H](OCC(C)C)[C@H](C)OC1=O` [Compound F172], the pest or weed control at 100 ppm with Venturia inaequalis fell in the range of 0 to 80%; in experiment [1], 80 to 100%; in the experiment on Rhyncosporium secalis, 80 to 100%; in the experiment on Uncinula necator, 0 to 80%.
